Patent US20190142800A1, “SYNERGISTIC ANTIFUNGAL COMPOSITIONS AND METHODS THEREOF” (VYOME THERAPEUTICS LIMITED, priority 2016, published 2019)
Values belong to the molecule of their own block, whether it stands above or below them.

Experiments:
[1] = system: Trichophyton rubrum (ATCC-28188); assay: Checkerboard assay of fatty acid/ester with antifungals on Trichophyton rubrum (ATCC 28188); assay type: cell-based; set-up: key to FIC index: FIC index = sum of FICs; FIC = agent conc in well / agent MIC; conditions: for MIC: Trichophyton rubrum, ATCC28188, agent alone
Description: (§1) The synergy is measured by determining the fractional inhibitory concentration (FIC) value of the combination. This experimental set up, called checkerboard method, allows measurement of a desired effect (inhibition of fungal growth in this case) at different combinations of various concentrations of the two agents (antifungal agent and fatty acid/ester). […] No agent is added to the penultimate column on the right and the bottom row. The final column on the right is used for growth control (only inoculum in broth) and sterility control (broth alone, no inoculum). […] FIC value for each agent in a particular well of the checkerboard layout was calculated by dividing the agent concentration in that well by the established MIC value of the agent against the test organism (Hsieh et al., Synergy assessed by checkerboard: A critical Analysis, Diagn. Microbiol. Infect Dis. (1993) 16:343-349). FIC values for both agents in a particular well were calculated in this way followed by determination of the FIC index (sum of the FICs of each drug in the concerned well). […] Agents Chemother. (2010) 54(2): 602-609].
(§2) Using the checkerboard layout experimental setup described above (FIG. 1A), various medium-chain fatty acids were tested for their ability to potentiate the activity of a known antifungal agent. Concentrations above and below the MIC of each test agent were tested using serial dilution. The same procedure was expanded to test combinations of various medium-chain fatty acids C-1 to C-14 (such caprylic acid, undecylenic acid and lauric acid) and esters thereof, with antifungal agents from various classes including azoles, allylamines, benzylamines, zinc pyrithione and piroctone olamine against both susceptible and resistant Trichophyton spp. (filamentous fungus) and Candida spp. (yeast).
(§3) Potentiation of the activity of antimycotic agents using ester derivatives of medium chain fatty acids was tested in a standard, well accepted in vitro assay system to check for synergy. This experimental set up, called checkerboard method, allows measurement of a desired effect (inhibition of fungal growth in this case) at different combinations of various concentrations of two agents. A chosen medium chain fatty acid (C-1 to C-14) or its ester derivative was tested for its ability to potentiate the activity of a known antifungal agent (various classes) using the checkerboard layout. Various concentrations above and below the MIC of each test agent were tested using serial dilution in Sabouraud dextrose broth. […] FIC value for a drug in a particular well of the checkerboard layout is calculated by dividing the drug concentration in that well by the established MIC value of the drug against the test organism (Hsieh et al., Synergy assessed by checkerboard: A critical Analysis, Diagn. Microbiol. Infect Dis. (1993) 16:343-349). FIC values for both test agents in a particular well are calculated in this way followed by determination of the FIC index (sum of the FICs of each drug in the concerned well).

[2] = system: azole resistant C. albicans MTCC 227; assay: Checkerboard assay on azole resistant C. albicans MTCC 227; assay type: cell-based, Candida albicans; conditions: for MIC: Candida albicans, MTCC227, agent alone
Description: as §1, with “FIC” for “FIC value for each agent in a particular well of the checkerboard layout was calculated by dividing the agent concentration in that well by the established MIC value of the agent against the test organism (Hsieh et al., Synergy assessed by checkerboard: A critical Analysis, Diagn. Microbiol. Infect Dis. (1993) 16:343-349). FIC”, “Chemother.” for “Chemother. (2010) 54(2): 602-609].”
as §2
as §3, with “FIC” for “FIC value for a drug in a particular well of the checkerboard layout is calculated by dividing the drug concentration in that well by the established MIC value of the drug against the test organism (Hsieh et al., Synergy assessed by checkerboard: A critical Analysis, Diagn. Microbiol. Infect Dis. (1993) 16:343-349). FIC”

[3] = Table 2, propylene glycol monocaprylate series
[4] = Table 3, glyceryl monocaprylate series
[5] = agent's MIC in combination antifungal + caprylic acid (partner: other agent of same combination no.)
[6] = agent's MIC in combination antifungal + glyceryl monocaprylate (partner: other agent of same combination no.)
[7] = agent's MIC in combination antifungal + propylene glycol monocaprylate (partner: other agent of same combination no.)
[8] = antifungal in combination with caprylic acid
[9] = antifungal in combination with glyceryl monocaprylate
[10] = antifungal in combination with propylene glycol monocaprylate
[11] = combination antifungal + caprylic acid
[12] = combination antifungal + glyceryl monocaprylate
[13] = combination antifungal + propylene glycol monocaprylate
[14] = Table 9, caprylic acid (C8) series
[15] = Table 10, propylene glycol monocaprylate series
[16] = Table 11, glyceryl monocaprylate series
[17] = Table 12, undecylenic acid (C11) series
[18] = Table 13, lauric acid (C12) series
[19] = Table 14, propylene glycol monolaurate series
[20] = agent's MIC in combination antifungal + lauric acid (partner: other agent of same combination no.)
[21] = agent's MIC in combination antifungal + propylene glycol monolaurate (partner: other agent of same combination no.)
[22] = agent's MIC in combination antifungal + undecylenic acid (partner: other agent of same combination no.)
[23] = antifungal in combination with lauric acid
[24] = antifungal in combination with propylene glycol monolaurate
[25] = antifungal in combination with undecylenic acid
[26] = combination antifungal + lauric acid
[27] = combination antifungal + propylene glycol monolaurate
[28] = combination antifungal + undecylenic acid
[29] = Table 5, lauric acid (C12) series

MIC ([1]; Table 1, caprylic acid series): 0.312 µg/mL
MIC [1, 3]: 0.3 µg/mL
MIC [1, 4]: 0.321 µg/mL
Combination MIC [1, 5]: 0.0781 µg/mL
Combination MIC [1, 6]: 0.009 µg/mL
Combination MIC [1, 7]: 0.0375 µg/mL
MIC [2, 14]: 64 µg/mL
MIC [2, 15]: 128 µg/mL
MIC [2, 16]: 128 µg/mL
MIC [2, 17]: 128 µg/mL
MIC [2, 18]: 64 µg/mL
MIC [2, 19]: 128 µg/mL
Combination MIC [2, 5]: 0.25 µg/mL
Combination MIC [2, 6]: 2 µg/mL
Combination MIC [2, 20]: 0.25 µg/mL
Combination MIC [2, 7]: 8 µg/mL
Combination MIC [2, 21]: 32 µg/mL
Combination MIC [2, 22]: 1 µg/mL
Structure (SMILES): CC(=O)N1CCN(c2ccc(OCC3COC(Cn4ccnc4)(c4ccc(Cl)cc4Cl)O3)cc2)CC1 (centres unmarked) [Ketoconazole]
FIC index [1, 8]: 0.5
Interaction [1, 8]: Synergistic (Combinations that gave FIC indices less than 1 were designated “synergistic”)
FIC index [1, 9]: 0.531
Interaction [1, 9]: Synergistic (Combinations that gave FIC indices less than 1 were designated “synergistic”)
FIC index [1, 10]: 0.625
Interaction [1, 10]: Synergistic (Combinations that gave FIC indices less than 1 were designated “synergistic”)
FIC [1, 11]: 0.25
FIC [1, 12]: 0.031
FIC [1, 13]: 0.125
FIC index [2, 8]: 0.253
Interaction [2, 8]: Synergistic (Combinations that gave FIC indices less than 1 were designated “synergistic”)
FIC index [2, 9]: 0.265
Interaction [2, 9]: Synergistic (Combinations that gave FIC indices less than 1 were designated “synergistic”)
FIC index [2, 23]: 0.127
Interaction [2, 23]: Synergistic (Combinations that gave FIC indices less than 1 were designated “synergistic”)
FIC index [2, 10]: 0.187
Interaction [2, 10]: Synergistic (Combinations that gave FIC indices less than 1 were designated “synergistic”)
FIC index [2, 24]: 0.281
Interaction [2, 24]: Synergistic (Combinations that gave FIC indices less than 1 were designated “synergistic”)
FIC index [2, 25]: 0.132
Interaction [2, 25]: Synergistic (Combinations that gave FIC indices less than 1 were designated “synergistic”)
FIC [2, 11]: 0.003
FIC [2, 12]: 0.0156
FIC [2, 26]: 0.003
FIC [2, 13]: 0.0625
FIC [2, 27]: 0.25
FIC [2, 28]: 0.0078

MIC [1, 29]: 15.6 µg/mL
MIC [2, 18]: 3120 µg/mL
Structure (SMILES): CCCCCCCCCCCC(=O)O [Lauric acid]

MIC ([1]; Table 1, caprylic acid series): 0.125 µg/mL
MIC [1, 3]: 0.125 µg/mL
MIC [1, 4]: 0.125 µg/mL
MIC ([1]; Table 4, undecylenic acid (C11) series): 0.125 µg/mL
MIC [1, 29]: 0.125 µg/mL
MIC ([1]; Table 6, propylene glycol monolaurate series): 0.125 µg/mL
Combination MIC [1, 5]: 0.0312 µg/mL
Combination MIC [1, 6]: 0.007 µg/mL
Combination MIC [1, 20]: 0.06 µg/mL
Combination MIC [1, 7]: 0.015 µg/mL
Combination MIC [1, 21]: 0.06 µg/mL
Combination MIC [1, 22]: 0.0312 µg/mL
MIC [2, 14]: 32 µg/mL
MIC [2, 15]: 64 µg/mL
MIC [2, 16]: 32 µg/mL
MIC [2, 17]: 32 µg/mL
MIC [2, 18]: 32 µg/mL
MIC [2, 19]: 32 µg/mL
Combination MIC [2, 5]: 4 µg/mL
Combination MIC [2, 6]: 4 µg/mL
Combination MIC [2, 20]: 0.125 µg/mL
Combination MIC [2, 7]: 0.125 µg/mL
Combination MIC [2, 21]: 2 µg/mL
Combination MIC [2, 22]: 0.125 µg/mL
Structure (SMILES): CCC(C)n1ncn(-c2ccc(N3CCN(c4ccc(OCC5COC(Cn6cncn6)(c6ccc(Cl)cc6Cl)O5)cc4)CC3)cc2)c1=O (centres unmarked) [Itraconazole]
FIC index [1, 8]: 0.5
Interaction [1, 8]: Synergistic (Combinations that gave FIC indices less than 1 were designated “synergistic”)
FIC index [1, 9]: 0.562
Interaction [1, 9]: Synergistic (Combinations that gave FIC indices less than 1 were designated “synergistic”)
FIC index [1, 23]: 0.75
Interaction [1, 23]: Synergistic (Combinations that gave FIC indices less than 1 were designated “synergistic”)
FIC index [1, 10]: 0.625
Interaction [1, 10]: Synergistic (Combinations that gave FIC indices less than 1 were designated “synergistic”)
FIC index [1, 24]: 0.6
Interaction [1, 24]: Synergistic (Combinations that gave FIC indices less than 1 were designated “synergistic”)
FIC index [1, 25]: 0.75
Interaction [1, 25]: Synergistic (Combinations that gave FIC indices less than 1 were designated “synergistic”)
FIC [1, 11]: 0.25
FIC [1, 12]: 0.0625
FIC [1, 26]: 0.5
FIC [1, 13]: 0.125
FIC [1, 27]: 0.48
FIC [1, 28]: 0.25
FIC index [2, 8]: 0.25
Interaction [2, 8]: Synergistic (Combinations that gave FIC indices less than 1 were designated “synergistic”)
FIC index [2, 9]: 0.375
Interaction [2, 9]: Synergistic (Combinations that gave FIC indices less than 1 were designated “synergistic”)
FIC index [2, 23]: 0.253
Interaction [2, 23]: Synergistic (Combinations that gave FIC indices less than 1 were designated “synergistic”)
FIC index [2, 10]: 0.064
Interaction [2, 10]: Synergistic (Combinations that gave FIC indices less than 1 were designated “synergistic”)
FIC index [2, 24]: 0.07
Interaction [2, 24]: Synergistic (Combinations that gave FIC indices less than 1 were designated “synergistic”)
FIC index [2, 25]: 0.066
Interaction [2, 25]: Synergistic (Combinations that gave FIC indices less than 1 were designated “synergistic”)
FIC [2, 11]: 0.125
FIC [2, 12]: 0.125
FIC [2, 26]: 0.003
FIC [2, 13]: 0.002
FIC [2, 27]: 0.0625
FIC [2, 28]: 0.003
